# Assay: Solvent solubility of naphthacene host compound
# Type: physicochemical
# Conditions: aromatic substituent bonded to naphthacene skeleton in para position; solvent not stated
# Description: For instance, when an aromatic group as a substituent is bonded to a naphthacene skeleton in para position, the solubility is lowered.
row,Structure (SMILES),solubility [mass %]
1,c1ccc(-c2ccc(-c3c4ccccc4c(-c4ccc(-c5ccccc5)cc4-c4ccccc4)c4cc5ccccc5cc34)c(-c3ccccc3)c2)cc1,≤ 0.1

# Assay: Solubility Evaluation 1: anthracene compounds in various solvents, visual check
# Type: physicochemical
# Set-up: key to Solubility in Cyclohexanone / Solubility in Toluene / Solubility in Xylene / Solubility in Tetralin / Solubility in Dodecylbenzene / Solubility in Anisole / Solubility in Dioxane / Solubility in Butyl Acetate / Solubility in Methylethylketone / Solubility in N-methylpyrolidone: A: it was confirmed that the compounds were dissolved in the dropped solvents; C: the compounds were not completely dissolved and undissolved residues remained
# Conditions: 30 mg compound, 1 g solvent, visual check
# Procedure: (§1) 30 mg of each of anthracene compounds 1 to 14 represented by the following formulae was put into a sample bottle, and 1 g of each of various solvents was dropped into the bottle with agitation. By visual check, a case where it was confirmed that the compounds were dissolved in the dropped solvents is marked as A and a case where the compounds were not completely dissolved and undissolved residues remained is marked as C.
Structure (SMILES),Solubility in Anisole,Solubility in Butyl Acetate,Solubility in Cyclohexanone,Solubility in Dioxane,Solubility in Dodecylbenzene,Solubility in Methylethylketone,Solubility in N-methylpyrolidone,Solubility in Tetralin,Solubility in Toluene,Solubility in Xylene
c1ccc(-c2ccc(-c3ccccc3-c3c4ccccc4c(-c4c5ccccc5c(-c5ccccc5-c5ccc(-c6ccccc6)cc5)c5ccccc45)c4ccccc34)cc2)cc1 [Compound 14],C,C,A,A,C,C,A,C,A,C
c1ccc2cc(-c3ccc(-c4c5ccccc5c(-c5ccc(-c6cccc7ccccc67)cc5)c5ccccc45)cc3)ccc2c1 [Compound 7],C,C,A,A,C,C,A,C,A,A
c1ccc2cc(-c3c4ccccc4c(-c4ccc(-c5cccc6ccccc56)cc4)c4ccccc34)ccc2c1 [Compound 1],C,C,A,A,C,C,A,C,A,A
c1ccc(-c2ccc3cc(-c4cccc(-c5c6ccccc6c(-c6ccc(-c7cccc8ccccc78)cc6)c6ccccc56)c4)ccc3c2)cc1 [Compound 3],C,C,A,A,C,C,A,C,A,A
c1ccc2cc(-c3c4ccccc4c(-c4ccc5ccccc5c4)c4ccccc34)ccc2c1 [Compound 11],C,C,C,C,C,C,C,C,C,C
c1cc(-c2ccc3ccccc3c2)cc(-c2c3ccccc3c(-c3ccc4cc(-c5ccc6ccccc6c5)ccc4c3)c3ccccc23)c1 [Compound 4],C,C,A,C,C,C,A,C,C,C
c1ccc2cc(-c3ccc(-c4ccc(-c5c6ccccc6c(-c6ccc7ccccc7c6)c6ccccc56)cc4)c4ccccc34)ccc2c1 [Compound 9],C,C,A,C,C,C,A,C,C,C
c1ccc(-c2cc(-c3ccc4ccccc4c3)cc(-c3c4ccccc4c(-c4ccc5ccccc5c4)c4ccccc34)c2)cc1 [Compound 2],C,C,A,A,C,C,A,C,A,A
c1cc(-c2ccc3ccccc3c2)cc(-c2c3ccccc3c(-c3cccc4ccccc34)c3ccccc23)c1 [Compound 6],C,C,A,C,C,C,A,C,C,C
c1cc(-c2ccc3ccccc3c2)cc(-c2c3ccccc3c(-c3ccc4ccccc4c3)c3ccccc23)c1 [Compound 10],C,C,A,C,C,C,A,C,A,A
c1ccc(-c2ccc(-c3c4ccccc4c(-c4ccc(-c5ccccc5)cc4)c4ccccc34)cc2)cc1 [Compound 13],C,C,C,C,C,C,C,C,C,C
c1ccc(-c2c3ccccc3c(-c3cccc(-c4cccc(-c5c6ccccc6c(-c6ccccc6)c6ccccc56)c4)c3)c3ccccc23)cc1 [Compound 12],C,C,C,C,C,C,C,C,C,C
c1ccc(-c2ccc3cc(-c4cccc(-c5c6ccccc6c(-c6ccc7ccccc7c6)c6ccccc56)c4)ccc3c2)cc1 [Compound 8],C,C,A,C,C,C,A,C,C,C
c1ccc(-c2ccc3ccc(-c4c5ccccc5c(-c5cccc(-c6ccc7ccccc7c6)c5)c5ccccc45)cc3c2)cc1 [Compound 5],C,C,A,C,C,C,A,C,C,C

# Same assay, conditions: cyclohexanone
row,Structure (SMILES),dissolution in cyclohexanone (in words)
1,c1cc(-c2ccc3ccccc3c2)cc(-c2c3ccccc3c(-c3ccc4cc(-c5ccc6ccccc6c5)ccc4c3)c3ccccc23)c1 [Compound 4],dissolved

# Same assay, conditions: toluene
row,Structure (SMILES),dissolution in toluene (in words)
1,c1cc(-c2ccc3ccccc3c2)cc(-c2c3ccccc3c(-c3ccc4cc(-c5ccc6ccccc6c5)ccc4c3)c3ccccc23)c1 [Compound 4],not dissolved

# Assay: Solubility Evaluation 2: naphthacene compounds in various solvents, visual check
# Type: physicochemical
# Set-up: key: A: it was confirmed that the compounds were dissolved in the dropped solvents; C: the compounds were not completely dissolved and undissolved residues remained
# Conditions: 30 mg compound, 1 g solvent
# Procedure: as §1
# Next, naphthacene compounds 15 and 16 were used in place of the anthracene compounds, and the solubility was evaluated in the same manner as the above. Same as in Solubility Evaluation 1, by visual check, a case where it was confirmed that the compounds were dissolved in the dropped solvents is marked as A and a case where the compounds were not completely dissolved and undissolved residues remained is marked as C. Moreover, a case where precipitation was observed after several hours of dissolution is marked as B. Result of solubility evaluation will be shown in Table 3 below.
Structure (SMILES),Solubility in Cycloheptanone,Solubility in Cyclohexanone,Solubility in N-methylpyrolidone,Solubility in Toluene,Solubility in Xylene
c1ccc(-c2cc(-c3ccccc3)c(-c3c4ccccc4c(-c4ccccc4)c4cc5ccccc5cc34)c(-c3ccccc3)c2)cc1 [Compound 16],A,A,A,C,C

# Source: patent US9290691B2, “Organic el material-containing solution, method for forming organic el thin film, organic el device comprising organic el thin film, and method for manufacturing organic el display panel” (IDEMITSU KOSAN CO., LTD., priority 2007, dated 2016)
